Experimental data reported in ChEMBL document CHEMBL3882724 (2013).

Columns and labels:
[1] = target: T1, Steroid 17-alpha-hydroxylase/17,20 lyase (Homo sapiens, UniProt P05093); assay: Inhibition of CYP17 in human testicular microsomes using 17alpha-hydroxypregnenolone as substrate assessed as decrease in DHEA levels after 90 mins by ELISA; parameters: species or system Testis
T1 sequence (P05093 whole entry): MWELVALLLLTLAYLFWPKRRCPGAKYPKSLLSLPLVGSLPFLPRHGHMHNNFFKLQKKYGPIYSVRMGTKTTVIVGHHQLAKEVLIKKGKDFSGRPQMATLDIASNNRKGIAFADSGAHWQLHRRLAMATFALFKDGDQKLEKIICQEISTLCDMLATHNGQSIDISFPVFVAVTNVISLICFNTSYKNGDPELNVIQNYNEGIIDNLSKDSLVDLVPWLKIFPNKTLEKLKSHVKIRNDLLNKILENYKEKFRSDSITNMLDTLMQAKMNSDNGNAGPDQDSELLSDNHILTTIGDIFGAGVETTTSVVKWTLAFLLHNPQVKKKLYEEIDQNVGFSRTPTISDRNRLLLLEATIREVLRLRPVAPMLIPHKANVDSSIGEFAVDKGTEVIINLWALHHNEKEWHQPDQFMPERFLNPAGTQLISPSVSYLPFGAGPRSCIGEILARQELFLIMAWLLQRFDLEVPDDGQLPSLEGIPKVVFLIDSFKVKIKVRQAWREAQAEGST

[2] = Half life in human liver microsomes at 1 uM by LC-MS/MS analysis
[3] = target: T2, CYP21 (steroid 21-hydroxylase) (Homo sapiens, UniProt P08686); assay: Inhibition of human CYP21 transfected in HEK293 cells assessed as decrease in conversion of progesterone to 11-deoxycorticosterone preincubated for 5 hrs followed by progesterone addition measured after 20 hrs by ELISA; assay type: cell-based; parameters: concentration or dose not given beside the values; conditions: HEK293 cells transfected with human CYP21, probe progesterone
T2 sequence (P08686 whole entry): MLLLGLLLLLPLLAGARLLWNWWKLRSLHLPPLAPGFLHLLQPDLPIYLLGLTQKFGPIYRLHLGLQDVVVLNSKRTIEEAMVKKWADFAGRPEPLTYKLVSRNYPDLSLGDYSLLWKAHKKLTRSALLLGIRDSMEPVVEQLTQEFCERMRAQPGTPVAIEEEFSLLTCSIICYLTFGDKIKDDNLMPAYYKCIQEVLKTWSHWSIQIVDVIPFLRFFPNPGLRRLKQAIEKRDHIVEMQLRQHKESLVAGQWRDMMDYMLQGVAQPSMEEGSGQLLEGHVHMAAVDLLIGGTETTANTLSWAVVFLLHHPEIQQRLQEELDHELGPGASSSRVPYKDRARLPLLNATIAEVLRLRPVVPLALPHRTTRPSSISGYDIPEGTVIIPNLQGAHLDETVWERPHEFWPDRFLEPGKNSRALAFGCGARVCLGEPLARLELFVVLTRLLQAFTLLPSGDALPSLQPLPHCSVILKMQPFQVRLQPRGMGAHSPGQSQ

| SMILES | IC50 [1] | half-life at 1 µM [2] | inhibition at 20 h [3] |
| --- | --- | --- | --- |
| CC(=O)NC1CC[C@@]2(C)C(CC[C@@H]3[C@@H]2CC[C@]2(C)C(c4cccnc4)=CC[C@@H]32)C1 (single isomer, unassigned) | ≤ 11 nM | 1 to 50 min | ≥ 50% |
| COC(=O)N[C@H]1CC[C@@]2(C)C(CC[C@H]3C4CC=C(c5cccnc5)[C@@]4(C)CC[C@@H]32)C1 (single isomer, unassigned) |  | 1 to 50 min | ≥ 50% |
| C[C@]12CCC(F)(F)CC1CC[C@@H]1[C@@H]2CC[C@]2(C)C(c3cccnc3)=CC[C@@H]12 (some centres not stated) | ≤ 11 nM |  |  |
| C[C@]12CCC(=O)CC1C(=O)C[C@@H]1[C@@H]2CC[C@]2(C)C(c3cncc(F)c3)=CC[C@@H]12 (some centres not stated) | ≤ 11 nM |  | ≥ 50% |
| CCNC(=O)N[C@@H]1CC[C@@]2(C)C(=CC[C@@H]3[C@@H]2CC[C@]2(C)C(c4cccnc4)=CC[C@@H]32)C1 |  | 1 to 50 min | ≥ 50% |
| C[C@]12CC[C@H]3[C@@H](CC(F)[C@]4(O)C[C@@H](O)CC[C@]34C)[C@@H]1CC=C2c1cccnc1 (some centres not stated) | ≤ 11 nM | 1 to 50 min | ≥ 50% |
| C[C@]12CC[C@H]3[C@@H](CC(F)C4(O)CC(=O)CC[C@]34C)[C@@H]1CC=C2c1cncc(F)c1 (some centres not stated) | ≤ 11 nM |  | ≥ 50% |
| Cc1cncc(C2=CC[C@H]3[C@@H]4CC=C5C[C@H](NC(=O)C6CC6)CC[C@]5(C)[C@H]4CC[C@]23C)c1 | ≤ 11 nM |  | ≥ 50% |
| C[C@]12CCC(=O)C=C1C(F)C[C@@H]1[C@@H]2CC[C@]2(C)C(c3cncc(F)c3)=CC[C@@H]12 (some centres not stated) | ≤ 11 nM | 1 to 50 min | ≥ 50% |
| C[C@]12CCC(=O)C(O)=C1C=C[C@@H]1[C@@H]2CC[C@]2(C)C(c3cccnc3)=CC[C@@H]12 |  | 1 to 50 min | ≥ 50% |
| C[C@]12CC[C@@H](NC(=O)C3CC3)CC1=CC[C@H]1C3CC=C(c4cccnc4)[C@@]3(C)CC[C@@H]12 (single isomer, unassigned) | ≤ 11 nM | 1 to 50 min | ≥ 50% |
| C[C@]12CCC(=O)C=C1C(=O)C[C@@H]1[C@@H]2CC[C@]2(C)C(c3cncc(F)c3)=CC[C@@H]12 | ≤ 11 nM |  | ≥ 50% |
| C[C@]12CCNC(=O)C=C1C(F)C[C@@H]1[C@@H]2CC[C@]2(C)C(c3cccnc3)=CC[C@@H]12 (some centres not stated) | ≤ 11 nM | 1 to 50 min | ≥ 50% |
| CC1(C)C2=CC[C@H]3C4=CC=C(c5cccnc5)[C@@]4(C)CC[C@@H]3[C@@]2(C)CCC1O (some centres not stated) |  | 1 to 50 min | 10 to 50% |
| CC1=C2CC[C@@H]3[C@H](CC[C@]4(C)C(c5cccnc5)=CC[C@@H]34)[C@@]2(C)CCC1O (some centres not stated) | ≤ 11 nM |  | 10 to 50% |
| C[C@]12CC[C@H]3[C@@H](CC(O)C45CC4CC[C@]35C)C1=CC=C2c1cccnc1 (some centres not stated) | ≤ 11 nM | 1 to 50 min | ≥ 50% |
| C[C@]12CC[C@H](O)CC1=CC[C@@H]1[C@@H]2CC[C@]2(C)C(c3cncc(Cl)c3)=CC[C@@H]12 | ≤ 11 nM | 1 to 50 min | ≥ 50% |
| Cc1cncc(C2=CC=C3[C@@H]4CCC5CC(=O)NCC[C@]5(C)[C@H]4CC[C@]23C)c1 (some centres not stated) | ≤ 11 nM |  | ≥ 50% |
| C[C@]12CC[C@H]3[C@@H](CCC4=CC(=O)CC[C@@]43C)C1=CC=C2c1cncc(N)c1 | ≤ 11 nM |  |  |
| C[C@]1(O)CC[C@@]2(C)C(CC[C@H]3C4=CC=C(c5cccnc5)[C@@]4(C)CC[C@@H]32)C1 (some centres not stated) | ≤ 11 nM | 1 to 50 min | 10 to 50% |
| CC1=C2CC[C@H]3C4=CC=C(c5cccnc5)[C@@]4(C)CC[C@@H]3[C@@]2(C)CCC1O (some centres not stated) | ≤ 11 nM |  |  |
| C[C@]12CC[C@H]3[C@@H](CC(F)[C@@]4(O)C[C@@H](O)CC[C@]34C)[C@@H]1CC=C2c1cccnc1 (some centres not stated) | ≤ 11 nM | 1 to 50 min | ≥ 50% |

| SMILES | IC50 [1] | half-life at 1 µM [2] | inhibition at 20 h [3] |
| --- | --- | --- | --- |
| CC(=O)N[C@@H]1CC[C@@]2(C)C(CC[C@H]3C4=CC=C(c5cccnc5)[C@@]4(C)CC[C@@H]32)C1 (some centres not stated) |  | 1 to 50 min | ≥ 50% |
| CC(=O)N[C@@H]1CC[C@@]2(C)C(=CC[C@@H]3[C@@H]2CC[C@]2(C)C(c4cncc(C(F)F)c4)=CC[C@@H]32)C1 | ≤ 11 nM | 1 to 50 min | ≥ 50% |
| C[C@]12CC[C@@H](NC(=O)C3CCC3)CC1=CC[C@@H]1[C@@H]2CC[C@]2(C)C(c3cccnc3)=CC[C@@H]12 | ≤ 11 nM |  | ≥ 50% |
| CC[C@]1(O)CC[C@@]2(C)C(CC[C@@H]3[C@@H]2CC[C@]2(C)C(c4cccnc4)=CC[C@@H]32)C1 (some centres not stated) |  | 1 to 50 min | 10 to 50% |
| C[C@]12CC[C@H]3[C@@H](CC(F)C4(O)CC(=O)CC[C@]34C)[C@@H]1CC=C2c1cccnc1 (some centres not stated) | ≤ 11 nM |  | ≥ 50% |
| CC(=O)N[C@@H]1CC[C@@]2(C)C(=CC[C@@H]3[C@@H]2CC[C@]2(C)C(c4cncc(F)c4)=CC[C@@H]32)C1 | ≤ 11 nM | 1 to 50 min | ≥ 50% |
| CC1C[C@H]2[C@@H]3CC=C(c4cccnc4)[C@@]3(C)CC[C@@H]2[C@@]2(C)CC[C@H](O)CC12O (some centres not stated) | ≤ 11 nM |  | ≥ 50% |
| CCCC(=O)N[C@@H]1CC[C@@]2(C)C(=CC[C@@H]3[C@@H]2CC[C@]2(C)C(c4cccnc4)=CC[C@@H]32)C1 | ≤ 11 nM | 1 to 50 min | ≥ 50% |
| COc1cncc(C2=CC[C@H]3[C@@H]4CC=C5C[C@H](NC(=O)C6CC6)CC[C@]5(C)[C@H]4CC[C@]23C)c1 | ≤ 11 nM | 1 to 50 min | ≥ 50% |
| C[C@]1(O)CC[C@@]2(C)C(CC[C@@H]3[C@@H]2CC[C@]2(C)C(c4cccnc4)=CC[C@@H]32)C1 (some centres not stated) | ≤ 11 nM | 1 to 50 min | ≥ 50% |
| C[C@]12CC[C@H]3[C@@H](CCC4CC(F)(F)CC[C@@]43C)C1=CC=C2c1cccnc1 (some centres not stated) | ≤ 11 nM |  |  |
| C[C@]12CC[C@H]3[C@@H](CC=C4C[C@H](O)CC[C@@]43C)C1=CC=C2c1cccnc1 | ≤ 11 nM | 1 to 50 min | ≥ 50% |
| C[C@]12CC[C@@H](NC(=O)C3CCC3)CC1=CC[C@@H]1[C@@H]2CC[C@]2(C)C(n3ccnc3)=CC[C@@H]12 | ≤ 11 nM | 1 to 50 min | ≥ 50% |
| CC(=O)O[C@H]1CC[C@@]2(C)C(=CC[C@H]3C4=CC=C(n5ccnc5)[C@@]4(C)CC[C@@H]32)C1 | ≤ 11 nM |  |  |
| C[C@]12CC[C@@H](NC(=O)C3CC3)CC1CC[C@H]1C3CC=C(c4cccnc4)[C@@]3(C)CC[C@@H]12 (single isomer, unassigned) | ≤ 11 nM | 1 to 50 min | ≥ 50% |
| CC(=O)N[C@@H]1CC[C@@]2(C)C(=CC[C@@H]3[C@@H]2CC[C@]2(C)C(c4cncc(C(F)(F)F)c4)=CC[C@@H]32)C1 |  | 1 to 50 min | 10 to 50% |
| C[C@]12CC[C@H](O)CC1=CC[C@@H]1[C@@H]2CC[C@]2(C)C(c3ccc(F)nc3)=CC[C@@H]12 |  | 1 to 50 min | 10 to 50% |
| COc1cncc(C2=CC[C@H]3[C@@H]4CCC5C[C@@H](NC(C)=O)CC[C@]5(C)[C@H]4CC[C@]23C)c1 (some centres not stated) |  | 1 to 50 min | ≥ 50% |
| C[C@]12CC[C@H](O)CC1=CC[C@@H]1[C@@H]2CC[C@]2(C)C(c3cncc(F)c3)=CC[C@@H]12 | ≤ 11 nM | ≥ 50 min | ≥ 50% |
| C[C@]12CC[C@H](O)CC1=CC[C@@H]1[C@@H]2CC[C@]2(C)C(c3cccnc3F)=CC[C@@H]12 | ≤ 11 nM | 1 to 50 min | ≥ 50% |
| C[C@]12CC[C@H]3[C@@H](CCC4=CC(=O)NCC[C@@]43C)C1=CC=C2c1cncc(C(F)F)c1 | ≤ 11 nM |  | ≥ 50% |
| C[C@@]1(O)CC[C@@]2(C)C(=CC[C@@H]3[C@@H]2CC[C@]2(C)C(c4cncc(F)c4)=CC[C@@H]32)C1 |  | ≥ 50 min | ≥ 50% |
